Data reported in patent publication US6964772B1, “Chitosan-xanthan based polyionic hydrogels for stabilization and controlled release of vitamins” (Kemestrie Inc., priority 1998, dated 2005).

Test: Determination of the Vitamin C stability in the cream base at 45° C.
Format: physicochemical
Conditions: cream with 5-25 wt % Vitamin C, after 30 days at 45° C., protected from light
Procedure: The method consists of introducing 20 to 30 mg of freeze-dried CHITOXAN™ loaded with Vitamin C in a 50 ml centrifuge tube together with 40 ml of the extraction solvent. The mixture is magnetically stirred for 60 minutes. The suspension formed is centrifuged (4000 rpm) and the supernatant is analysed. All operations are done in absence of light.
This determination requires the establishment of a calibration curve at a maximum absorption wavelength using a UV-vis spectrophotometer. A standard is prepared with the same solution (and solvent) initially used to introduce the Vitamin C within the CHITOXAN™. Experimentation has shown an absorption maximum at 243 nm for Vitamin C at 98% purity obtained from ALDRICH.
The calibration curve is constructed at 243 nm as follows. A solution of 1.3 mg/ml of Vitamin C in the solvent is prepared in a graduated cylinder. The solution is prepared just before analysis. By successive dilutions, the absorption versus concentration calibration curve (mg/ml) is thus measured.
The concentration of Vitamin C in the supernatant obtained via extraction is determined at 243 nm using the calibration curve. […]
10 g of the preparation obtained by inclusion of CHITOXAN™—Vit. […] Samples not immediately analysed were kept frozen at −4° C.
The aliquots were analysed with the method described earlier (always using the extraction solvent). […]

In the case of `O=C1O[C@H]([C@@H](O)CO)C(O)=C1O` [free Vitamin C, Vitamin C], the “coloration of the cream” value is reported as “an orange coloration appeared” and the “degradation of Vitamin C” value is reported as 98%.
